What all share (format): in vivo
In experiment [1] the test system is barnyardgrass (Echinochloa crus-galli). Briefly: Test A postemergence. Conditions: Echinochloa crus-galli, post-emergence, 240 h, 125 g ai/ha, postemergence; visual injury after approximately 10 d; 0 to 100 scale (0 no effect, 100 complete control); read-out: Plant response rating, Barnyardgrass. The procedure, abridged: (§1)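 Treatment is preemergence as a directed soil spray after planting, or postemergence at the one- to two-leaf stage, with test chemical in a non-phytotoxic solvent mixture plus surfactant. Plants stay in the greenhouse about 10 d before visual injury scoring on a 0 to 100 scale versus untreated controls.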

Experiment [2] relates to ragweed (common ragweed, Ambrosia elatior). Briefly: Test A postemergence. Conditions: Ambrosia artemisiifolia, post-emergence, 240 h, 125 g ai/ha, postemergence; visual injury after approximately 10 d; 0 to 100 scale (0 no effect, 100 complete control); read-out: Plant response rating, Ragweed. The method, boiled down:
as §1

The subject of experiment [3] is pigweed (Amaranthus retroflexus). Briefly: Test A postemergence. The conditions noted are these: Amaranthus retroflexus, post-emergence, 240 h, 125 g ai/ha, postemergence; visual injury after approximately 10 d; 0 to 100 scale (0 no effect, 100 complete control); read-out: Plant response rating, Pigweed. The procedure, abridged:
as §1

Experiment [4] has as its system corn (Zea mays). Briefly: Test A postemergence. The conditions noted are these: Zea mays, post-emergence, 240 h, 125 g ai/ha, postemergence; visual injury after approximately 10 d; 0 to 100 scale (0 no effect, 100 complete control). The procedure, abridged: as §1
The subject of experiment [5] is giant foxtail (Setaria faberii). Nature of the experiment: Test A postemergence. The conditions noted are these: Setaria faberi, post-emergence, 240 h, 125 g ai/ha, postemergence; visual injury after approximately 10 d; 0 to 100 scale (0 no effect, 100 complete control); read-out: Plant response rating, Foxtail, Giant. The method, boiled down: as §1
Experiment [6] relates to ryegrass, Italian (Italian ryegrass, Lolium multiflorum). Nature of the experiment: Test A postemergence. Conditions: Lolium multiflorum, post-emergence, 240 h, 125 g ai/ha, postemergence; visual injury after approximately 10 d; 0 to 100 scale (0 no effect, 100 complete control); read-out: Plant response rating, Ryegrass, Italian. The procedure, abridged: as §1
The test system of experiment [7] is Kochia (Kochia scoparia). Briefly: Test A postemergence. Conditions: Bassia scoparia, post-emergence, 240 h, 125 g ai/ha, postemergence; visual injury after approximately 10 d; 0 to 100 scale (0 no effect, 100 complete control); read-out: Plant response rating, Kochia. The procedure, abridged: as §1
The test system of experiment [8] is Galium (catchweed bedstraw, Galium aparine). Nature of the experiment: Test A postemergence. Conditions: Galium, post-emergence, 240 h, 125 g ai/ha, postemergence; visual injury after approximately 10 d; 0 to 100 scale (0 no effect, 100 complete control); read-out: Plant response rating, Galium. The method, boiled down:
as §1

In experiment [9] the test system is blackgrass (Alopecurus myosuroides). Nature of the experiment: Test A postemergence. Conditions: Alopecurus myosuroides, post-emergence, 240 h, 125 g ai/ha, postemergence; visual injury after approximately 10 d; 0 to 100 scale (0 no effect, 100 complete control); read-out: Plant response rating, Blackgrass. The method, boiled down:
as §1

Experiment [10] concerns wheat (Triticum aestivum). Nature of the experiment: Test A postemergence. The conditions noted are these: Triticum aestivum, post-emergence, 240 h, 125 g ai/ha, postemergence; visual injury after approximately 10 d; 0 to 100 scale (0 no effect, 100 complete control); read-out: Plant response rating, Wheat. The procedure, abridged: as §1
In experiment [11] the test system is ragweed (common ragweed, Ambrosia elatior). Briefly: Test A preemergence. Conditions: Ambrosia artemisiifolia, pre-emergence, 240 h, preemergence, read-out: Plant response rating, Ragweed. The method, boiled down: as §1
For experiment [12], the system named is pigweed (Amaranthus retroflexus). Briefly: Test A preemergence. Conditions: Amaranthus retroflexus, pre-emergence, 240 h, preemergence, read-out: Plant response rating, Pigweed.
The test system of experiment [13] is giant foxtail (Setaria faberii). Briefly: Test A preemergence. Conditions: Setaria faberi, pre-emergence, 240 h, preemergence, read-out: Plant response rating, Foxtail, Giant. The method, boiled down:
as §1

Experiment [14] concerns ryegrass, Italian (Italian ryegrass, Lolium multiflorum). Nature of the experiment: Test A preemergence. The conditions noted are these: Lolium multiflorum, pre-emergence, 240 h, preemergence, read-out: Plant response rating, Ryegrass, Italian. The procedure, abridged: as §1
For experiment [15], the system named is Kochia (Kochia scoparia). Briefly: Test A preemergence. The conditions noted are these: Bassia scoparia, pre-emergence, 240 h, preemergence, read-out: Plant response rating, Kochia. The procedure, abridged:
as §1

[16] abbreviates: 125 g ai/ha, visual rating after approx. 10 d, 0 to 100 scale where 0 is no effect and 100 is complete control.
Where [17] appears, read: 500 g ai/ha, 0 to 100 scale, 0 = no effect, 100 = complete control.

`Cc1cc([C@H]2CNC(=O)[C@@H]2C(=O)Nc2ccc(F)cc2F)ccc1Br` [Compound 725]: the pest or weed control at 125 g/ha in experiment [1] is 70%; in [2], 0%; in experiment [3] it was 0%; in experiment [5] it was 0%; in experiment [6], 0%; in experiment [7] it was 0%. Also, the pest or weed control at 125 g/ha in experiment [8] was found to be 20%; in experiment [9], 0%; in experiment [11] (setting [16]) it was 0%; in experiment [12] (setting [16]), 0%; in experiment [13] (setting [16]) it was 90%; in experiment [14] (setting [16]), 0%. The pest or weed control at 125 g/ha in experiment [15] (setting [16]) is 0%. The same compound showed a Corn plant response rating (crop injury, 0 = no effect, 100 = complete kill) at 125 g/ha in experiment [4] of 0%. Also, the plant injury at 125 g/ha in experiment [10] came to 0%. Further, the pest or weed control at 500 g/ha is 0% in [11] (setting [17]); 0% in [12] (setting [17]); 90% in experiment [13] (setting [17]); 20% in experiment [14] (setting [17]); 50% in experiment [15] (setting [17]).

The values are drawn from US12077503B2, “Substituted cyclic amides and their use as herbicides” (FMC CORPORATION, priority 2015, dated 2024).
